Test results from article PMC5342726, “Identification of small molecule inhibitors of ERCC1-XPF that inhibit DNA repair and potentiate cisplatin efficacy in cancer cells” (Oncotarget, 2016).
Read-outs that look alike come from different tables or passages of the source.

What was measured:
H1299 ERCC1 WT cells = test: Colony survival assay in H1299 ERCC1 WT cells; format: cell-based
Description: (§1) We used H460, NSCLC cells, to first assess the impact on colony survival by knocking down ERCC1-XPF in these cells. […] Next, to assess if colony survival is affected we titrated cisplatin in these cells using a fixed concentration of Hit 1(50 μM) or Hit 2 (25 and 50 μM). […] Next, we assessed cisplatin potentiation by treating cells at a fixed cisplatin concentration (cisplatin IC50 in H460 cells) with Hit 1 or 2 titration (Figure 4C, filled symbols). H460 cells were treated with compound for a total of 4 hours while cisplatin was added to the media after 2 hours of compound pre-treatment. […] We also titrated Hit 1 or Hit 2 alone in these cells and treated for 4 h. […] We also assessed the effects of Hit 2 in another NSCLC cell line (H1299), which was either ERCC1 wildtype (WT) or knockout (KO) (Figure 4E).
(§2) Colony survival assay in a total reaction volume of 2.4 mL in a six-well plate Cells were split and seeded at a density of 300-400 format. […]
(§3) with ≥50 cells were counted using a light microscope. […]
(§4) survival was expressed as the ratio of average number of into a linearized pCR4-TOPO vector and transformed colonies in drug treated cells versus control cells x 100. into OneShot TOP10 E. coli using the TOPO-TA Cloning The experiment was done in triplicate for each drug Kit for Sequencing (Thermofisher). […]

H1299 ERCC1 KO cells = test: Colony survival assay in H1299 ERCC1 KO cells; format: cell-based
Description: as §1, §2, §3, §4

APE1 endonuclease = tested on: APE1 endonuclease; design: method as in PMID 18042731; conditions: cited from earlier work
H460 xenografts = conditions: for tumor growth, combination with cisplatin: 16168 20 mg/kg i.p. daily + cisplatin 3 mg/kg i.p. twice a week

Cc1ccc(S(=O)(=O)Oc2cc(S(=O)(=O)O)cc3cc(S(=O)(=O)O)cc(N)c23)cc1 [NSC16168]
potentiation of cisplatin response, ERCC1 WT (H1299 ERCC1 WT cells): potentiated the cisplatin response | potentiation of cisplatin response, ERCC1 KO (H1299 ERCC1 KO cells): no additional cisplatin potentiation | IC50 (APE1 endonuclease): ~7 µM | tumor growth, combination with cisplatin (H460 xenografts): inhibited H460 tumor growth | tumor growth, combination with cisplatin (H460 xenografts; listed as Hit 2): significant effect on tumor growth compared with cisplatin alone | tumor growth, single agent (H460 xenografts; 16168 20 mg/kg i.p. daily or cisplatin 3 mg/kg i.p. twice a week, 10 days): tumor growth was minimally affected
